From US20220330547A1, “INSECT REPELLENT” (Rilis Co., Ltd., priority 2019, published 2022)
Several values for one entry are separate records, joined by “and”; a condition that tells them apart may be missing. Identical values can stand only once. Like-named read-outs stand apart in the source and are kept apart here.

Key:
ticks [1] = test: tick repellency test (petri dish) with filter paper heated at 150° C.; assay type: in vivo; conditions: 24 hours
Procedure: Subsequently, a relationship between the tick repellent effect resulting from a difference in oxidative modification rate and time was examined. In the test, mixed farnesyl acetone isomers, trans-farnesyl acetone, 2,4-DHAP and xanthoxyline were each dissolved to 1 g/m^2 in acetone, and each filter paper added thereto was heated at 150° C. only for 3 minutes, 5 minutes or 26 minutes. The filter paper not heated (hereinafter referred to as 150° C., 0 min) was also prepared.
Each filter paper was placed on the center of a petri dish with a diameter of 4 cm, and 0.05 g of an attractant sample was placed on the center of filter paper. The petri dish was placed on the center of another petri dish with a diameter of 9 cm, and about 10000 ticks were provided together with a medium to this another petri dish, which was left to stand for 24 hours. After that, ticks in the 4 cm petri dish were counted.
For the repellency rate, the proportion of the number of ticks which had not been attracted was calculated by the following formula using the number of ticks entering the petri dish on which only the attractant sample was placed, x (control), and contrarily the number of ticks entering the petri dish on which mixed farnesyl acetone isomers, trans-farnesyl acetone, 2,4-DHAP or xanthoxyline was placed, n.
Repellency rate={(x−n)/x} x 100 (%)
* a small number of entering ticks =high repellency rate
It should be noted that the heating time at 150° C. is not described in detail herein, but was converted by the following Arrhenius equation described in “Sumie Yoshioka, Stability of drugs and dosage forms, p. 142, 1995, Nankodo Co., Ltd.” as in Drug testing on Stability studies.
Arrhenius equation: k =A exp (-E/RT)
* Activation energy of stability studies E=22.1 kcal/mol.

[2] = oxidative modification of sample on filter paper, 40° C. for a week, measured by chromatography; assay type: physicochemical; conditions: for Variation (Oxidation) (%): decrease of area after 1 week at 40° C.; for Day of experiment (area): filter paper 1 g/m^2, measured on the day; for After 1 week (area): filter paper 1 g/m^2, sealed flask, 40° C., 150 rpm, a week
ticks [3] = conditions: 1 g/m^2, after 24 hours; for Mortality rate after correction (%): corrected by mortality rate without treatment
Procedure: Incidentally, a tick killing experiment was performed by a filter paper contact method to examine whether or not the insecticidal effect is contained in the repellent effect of 2,4-DHAP and xanthoxyline. In the experiment, ticks attracted to the untreated site in the repellent test by the petri-dish method were obtained on a filter paper by the sodium chloride floatation method, and living ticks were gently taken with a fine brush (one stroke). A 5 cm x 10 cm filter paper permeated with 1 g/m^2 of a sample was dried in air and shaped into a bag form. The taken ticks were put therein, and the opening thereof was closed with clips. After 24 hours, living ticks and dead ticks were measured.
In the tick killing test, 2,4-DHAP, xanthoxyline and DEET were compared. DEET is a compound used as a repellent for e.g. insects (anti-insect agent), and is also called N,N-diethyl-3-methylbenzamide or N,N-diethyl-m-toluamide.
In Table 3, the mortality rates (%) of 2,4-DHAP, xanthoxyline and DEET are values corrected by the mortality rate without treatment based on the mortality rate without treatment.

[4] = 25° C.; cited from earlier work
ticks [5] = conditions: maintained over 14 days; cited from earlier work
ticks [6] = test: repellent effect of farnesyl acetone in an environment of 150° C. (background statement); assay type: in vivo
Procedure: For example, if there is a heat treatment step in the step of the anti-tick treatment, because oxidation reactivity due to heat is high, the repellent effect is already reduced to 30% or less after about 3 minutes in an environment of 150° C., and the repellent effect is reduced to 0% by at most 60 minutes. That is to say, it is troublesome to subject living materials of interest to the anti-tick treatment.

[7] = 1 g/m^2, 150° C. 0 min (not heated)
[8] = 1 g/m^2, 150° C. 3 min (corresponding to 25° C., about 4 months)
[9] = 1 g/m^2, 150° C. 5 min (corresponding to 25° C., about 7 months)
[10] = 1 g/m^2, 150° C. 26 min (corresponding to 25° C., about 3 years)

| Compound | Repellency rate (ticks [1]; [7]) [%] | Repellency rate (ticks [1]; [8]) [%] | Repellency rate (ticks [1]; [9]) [%] | Repellency rate (ticks [1]; [10]) [%] | Variation (Oxidation) (%) [2] | Day of experiment (area) [2] [area] | After 1 week (area) [2] [area] | Dead ticks (ticks [3]; Average) | Living ticks (ticks [3]; Average) | Mortality rate (%) (ticks [3]; Average) | Mortality rate (%) (ticks [3]; single run) | Mortality rate after correction (%) (ticks [3]; single run) | Living ticks (ticks [3]; single run) | transpiration properties [4] | also measured |
| --- | --- | --- | --- | --- | --- | --- | --- | --- | --- | --- | --- | --- | --- | --- | --- |
| CC(=O)CC/C=C(\C)CC/C=C(\C)CCC=C(C)C [trans-Farnesyl acetone] | 94.30 | 90.50 | 65.70 | 0.00 | 19.29% | 4022168 | 3246218 |  |  |  |  |  |  |  | Repellency rate (ticks [1]; 1 g/m^2, 150° C. 5 min (corresponding to 25° C., about 7 months), listed as trans-farnesyl acetone): below 65%; Variation (Oxidation) (%) ([2]; listed as trans-farnesyl acetone): 19.29% |
| CCN(CC)C(=O)c1cccc(C)c1 [DEET, N,N-diethyl-3-methylbenzamide, reference compound] |  |  |  |  |  |  |  | 62 | 2 | 96.2 | 100.0% and 92.3% | 100.0% and 91.5% |  |  | Mortality rate after correction (%) (ticks [3]; Average): 95.8% |
| CC(=O)c1ccc(O)cc1O [2,4-DHAP, 2′,4′-dihydroxyacetophenone] | 39.80 | 37.40 |  |  | 7.4% and 7.46% | 12027833 | 11130386 | 4 | 106 | 3.4 | 2.4% and 4.4% | 0.0% | 81 and 131 | 6×10^-5 mmHg |  |
| COc1cc(O)c(C(C)=O)c(OC)c1 [Xanthoxyline] | 92.40 | 97.40 | 95.80 | 93.00 | 2.42% | 5756751 | 5617299 | 24 | 75 |  |  |  | 90 and 59 | 1.5×10^-5 mmHg | Repellency rate (ticks [1]; 1 g/m^2, 150° C. 3 min (corresponding to 25° C., about 4 months), listed as xanthoxyline): ≥ 90%; Repellency rate (ticks [1]; 1 g/m^2, 150° C. 5 min (corresponding to 25° C., about 7 months), listed as xanthoxyline): ≥ 90%; Dead ticks (ticks [3]; single run): 26 and 22; Variation (Oxidation) (%) ([2]; listed as xanthoxyline): 2.42% |
| CC(=O)CCC=C(C)CCC=C(C)CCC=C(C)C (mixture of isomers) [Mixed farnesyl acetone isomers, farnesyl acetone] | 90.60 | 94.90 | 24.60 | 17.60 | 67.10% | 3145831 | 1038335 |  |  |  |  |  |  |  | Repellency rate (ticks [1]; 1 g/m^2, 150° C. 5 min (corresponding to 25° C., about 7 months), listed as mixed farnesyl acetone isomers): 30%; Repellency rate (ticks [1]; 1 g/m^2, 150° C. 26 min (corresponding to 25° C., about 3 years), listed as mixed farnesyl acetone isomers): 17.6%; Variation (Oxidation) (%) ([2]; listed as mixed farnesyl acetone isomers): 67.10% |
| CC(=O)CCC=C(C)CCC=C(C)CCC=C(C)C [farnesyl acetone] |  |  |  |  |  |  |  |  |  |  |  |  |  |  | repellent effect (ticks [5]): ≥ 95%; repellent effect (ticks [6]; after about 3 minutes at 150° C.): ≤ 30%; repellent effect (ticks [6]; by at most 60 minutes at 150° C.): 0% |
